One data set concerns reserpine-induced ptosis. The data set is described as follows: Effect on reserpine-induced ptosis in the mouse. It is filed as in vivo, mouse (male ddY). Conditions: reserpine 2 mg/kg s.c.; for inhibition at 30 mg/kg / inhibition at 100 mg/kg / inhibition at 3 mg/kg / inhibition at 10 mg/kg: Mus musculus, 1.5 h, scored after 90 minutes, read-out: Inhibition rate (antagonism against reserpine-induced ptosis). Here is the method: (§1) The procedure employed in the tests will be explained concretely below:
1. Effect on reserpine-induced ptosis in the mouse
Male ddY mice (4 weeks of age, body weight 22-27 g) were used, divided into the indicated groups each consisting of 3 or 6 animals. The test compounds were dissolved or suspended in an appropriate solvent (physiological saline, 0.5% CMC or 1% dimethylsulfoxide solution) and were orally administered immediately before treatment with reserpine.
The vials containing the test solutions were labeled with coded ciphers and the administration was carried out in randomized order.
The mice were then subcutaneously treated with reserpine at a dose of 2 mg/kg. After 90 minutes, the extent of ptosis was scored. Grading of the score was based on the shape of eye immediately after the mice were taken out from their cages;
0: round eye shape, as normal
The inhibition rate at each dose was calculated from the scores according to the following equation: [formula] The inhibition rate was then scored on the following basis: […]

Another data set is described as follows: Acute toxicity, oral. It is filed as in vivo. The note with it: 300 mg/kg oral in 0.5% CMC, 5 mice, observed 5 days; Compound 36 as its hydrochloride. Here is the method: Each of the Compounds 11, 36 (as its hydrochloride), 53, 76, and 87 dissolved in a 0.5% CMC solution was orally administered to 5 mice at a dose of 300 mg/kg. Observations were made for a period of 5 days.

For data set [1] the following is noted: apparently exerted; cited from earlier work.
Data set [2] deals with spontaneous locomotor activities in mice treated with L-DOPA. The data set is described as follows: Potentiating effect upon spontaneous locomotor activities in mice treated with L-DOPA. It is filed as in vivo, mouse (male ddY). The note with it: for Average locomotor activities (+/- S.E.): 1 hour, MK-486 20 mg/kg i.p. then L-DOPA i.p. Here is the method: as §1
2. Potentiating effect of compounds upon spontaneous locomotor activities in mice treated with L-DOPA
Male ddY mice (5 weeks old, body weight 30-33 g) were used, after divided into groups each consisting of 5 animals (experiment 1) or 15 animals (experiment 2). The test compounds were prepared as described in the anti-reserpine study, and given orally 20 minutes before administration of MK-486. In control animals, saline was similarly administered. In order to prevent decomposition of L-DOPA at the peripheral site, the mice were intraperitoneally given MK-486 (carbidopa) at a dose of 20 mg/kg and treated intraperitoneally 30 minutes later with L-DOPA. The mice were placed in a cage on a locomotor activity counter (AUTOMEX-11), one-by-one (experiment 1) or 3 mice a cage (experiment 2). Spontaneous locomotor activities were determined for an hour, and the average locomotor activity at each dose was calcultated from 5 counts. The spontaneous locomotor activity in animals treated with the compound was statistically analyzed versus the control group using Student's two-tailed t-test.

Data set [3] has as its system spontaneous locomotor activities in mice treated with L-5-HTP. Description: Potentiating effect upon spontaneous locomotor activities in mice treated with L-5-HTP. It is filed as in vivo, mouse (male ddY). The note with it: 3 mg/kg oral; MK-486 20 mg/kg i.p.; L-5-HTP 100 mg/kg i.p.; 15 mice; 1 hour; saline 2147(+/-334); P <0.01. Here is the method: as §1
3. Potentiating effect of compounds upon spontaneous locomotor activities in mice treated with L-5-HTP
Male ddY mice (4 weeks old, body weight 22-25 g) were used, after divided into groups each consisting of 15 mice. Before administration of MK-486 (20 mg/kg, IP), either the test compound formulation or vehicle (control group) was orally administered. At 30 min after administration of […], L-5-HTP (100 mg/kg IP) was injected. Spontaneous locomotor activities were determined from 15 minutes after L-5-HTP. For this determination, 3 mice were placed in a locomotor counter (Automex) for an hour and the total count noted. Five such apparatuses were used for each dose, in order to eliminate different sensitivities of each apparatus. Thus, 15 mice were used in total for each dose. The average count and SE were calculated from the 5 determinations for each dose, and statistically analyzed versus control group using Student's two-tailed t-test.

Each structure is given as a SMILES string. Structures can show the parent of a compound that is named as a salt.

As a reminder, the inhibition is the percentage by which the read-out fell short of the control. With `CN(C)CCCN1c2ccccc2CCc2ccccc21` [Imipramine.HCl, reference compound], in the data set with reserpine-induced ptosis (30 mg/kg oral), the “Score (antagonism against reserpine-induced ptosis)” value (“Score” below) is “± (41% to 70%)” and the inhibition at 30 mg/kg worked out at 61%.

Consider `OC(COc1cc(-c2ccccc2)on1)CN1CCOCC1` (stereo not drawn) [Compound 36, 3-(2-Hydroxy-3-morpholinopropoxy)-5-phenylisoxazole], for which, in the data set with reserpine-induced ptosis (100 mg/kg oral), the “Score” value is listed as “+ (71% or more)” and the inhibition at 100 mg/kg is 71%. In addition, in the data set “Acute toxicity, oral”, the “Survival (acute toxicity)” value is listed as “all the mice survived” and the “Symptoms (acute toxicity)” value was “No particular symptoms were detected”.

On to `CN(C)CCCN1c2ccccc2CCc2ccccc21` [imipramine, 10,11-dihydro-N,N-dimethyl-5H-dibenz[b,f]azepine-5-propanamine], for which the “Anticholinergic activity of reference (in words)” value in data set [1] is “anticholinergic activity which is apparently exerted”.

For `OC(COc1cc(-c2ccc(Cl)cc2)on1)CN1CCOCC1` (stereo not drawn) [Compound 76, 5-(p-Chlorophenyl)-3-(2-hydroxy-3-morpholinopropoxy)isoxazole], in the data set on reserpine-induced ptosis (100 mg/kg oral), the “Score” value is listed as “+ (71% or more)” and the inhibition at 100 mg/kg is 71%. For the same compound, in “Acute toxicity, oral”, the “Survival (acute toxicity)” value is “all the mice survived” and the “Symptoms (acute toxicity)” value is “No particular symptoms were detected”.

As to `O=c1cc(-c2ccc(Cl)cc2)on1CC(O)CN1CCOCC1` (stereo not drawn) [Compound 11, 5-p-chlorophenyl-2-(2-hydroxy-3-morpholinopropyl)-4-isoxazolin-3-one], in the data set with reserpine-induced ptosis (3 mg/kg oral), the “Score” value is “± (41% to 70%)” and the inhibition at 3 mg/kg was found to be 50%. Besides, in the data set on reserpine-induced ptosis (10 mg/kg oral), the “Score” value was “± (41% to 70%)” and the inhibition at 10 mg/kg was 56%. In the data set with reserpine-induced ptosis (30 mg/kg oral), the “Score” value is on record as “+ (71% or more)” and the inhibition at 30 mg/kg was 72%. For the same compound, the “Spontaneous locomotor activity with treatment of L-DOPA (in words)” value in data set [2] (50 mg/kg) is reported as “significantly increased”. In data set [2] (experiment 1: 50 mg/kg oral, 5 mice one-by-one, control 160(+/-128), P <0.05), the “Average locomotor activities (+/- S.E.)” value is reported as 3355(+/-878). In addition, in “Acute toxicity, oral”, the “Survival (acute toxicity)” value is “all the mice survived” and the “Symptoms (acute toxicity)” value is listed as “No particular symptoms were detected”.

On to `NC(=O)OCC(O)Cn1oc2ccc(Cl)cc2c1=O` (stereo not drawn) [Compound 87, 2-(3-Carbamoyloxy-2-hydroxypropyl)-5-chlorobenzoisoxazolin-3-one], for which, in the data set with reserpine-induced ptosis (30 mg/kg oral), the “Score” value was “+ (71% or more)” and the inhibition at 30 mg/kg stood at 75%. In the data set on reserpine-induced ptosis (100 mg/kg oral), the “Score” value is given as “+ (71% or more)” and the inhibition at 100 mg/kg came to 100%. For the same compound, in “Acute toxicity, oral”, the “Survival (acute toxicity)” value is recorded as “all the mice survived” and the “Symptoms (acute toxicity)” value is given as “No particular symptoms were detected”.

Take `OC(COc1noc(-c2ccccc2)c1Cl)CN1CCOCC1` (stereo not drawn) [Compound 53, 4-Chloro-3-(2-hydroxy-3-morpholino-propoxy)-5-phenylisoxazole]: in the data set on reserpine-induced ptosis (30 mg/kg oral), the “Score” value is on record as “± (41% to 70%)” and the inhibition at 30 mg/kg worked out at 55%. In the data set “Acute toxicity, oral”, the “Survival (acute toxicity)” value is on record as “all the mice survived” and the “Symptoms (acute toxicity)” value was “No particular symptoms were detected”.

On to `O=c1cc(-c2ccc(Cl)cc2)on1C[C@@H](O)CN1CCOCC1` [Compound 22, (S)-5-(p-Chlorophenyl)-2-(2-hydroxy-3-morpholinopropyl)isoxazolin-3-one], for which, in the data set on reserpine-induced ptosis (3 mg/kg oral), the “Score” value was “± (41% to 70%)” and the inhibition at 3 mg/kg is 56%. In addition, in the data set with reserpine-induced ptosis (10 mg/kg oral), the “Score” value is listed as “± (41% to 70%)” and the inhibition at 10 mg/kg was determined as 81%. Besides, in the data set with reserpine-induced ptosis (30 mg/kg oral), the “Score” value is “+ (71% or more)” and the inhibition at 30 mg/kg was 100%. The “Average locomotor activities (+/- S.E.)” value in data set [2] (experiment 2: 50 mg/kg oral, 15 mice, 3 mice a cage, control 666(+/-137), P <0.001) was 6013(+/-629). Moreover, the “Average spontaneous locomotor activity (+/- SE)” value in data set [3] was 3544(+/-318).

The values are drawn from patent US5116839A, “Use of isoxazolin-3-one derivatives as antidepressants” (Sankyo Company, Limited, priority 1989, dated 1992).
